Read-outs that look alike come from different tables or passages of the source.
What was measured:
Format in all cases: cell-based, human
caspase 3-like proteases = conditions: HL-60 cells
Experimental: (§1) Cells (5×10^6 cells) were harvested by centrifugation, washing in ice-cold phosphate-buffered saline and the pellets resuspended in 200 μl of harvesting buffer (20 mM Hepes, pH 7.5, 10% (w/v) sucrose, 0.1% (w/v) CHAPS, 2 mM dithiotreitol, 0.1% (v/v) Nonidet NP40, 1 mM sodium EDTA and 1 mM phenylmethylsulfonyl fluoride) supplemented with protease inhibitors (1 μg/ml pepstatin A and 1 μg/ml leupeptin). Following incubation on ice for 10 min, samples were passed up and down 10 times through a 21 gauge needle. Following a further incubation on ice for 10 min the homogenates were centrifuged at 20,000 g for 20 min and the resulting supernatants used to measure caspase 3 activity. This enzyme activity was determined by a fluorometric assay using the substrate Ac-DEVD-AMC, which is cleaved by caspase 3 to release the fluorescent leaving group, amino-4-methyl coumarin (AMC). Enzyme extracts (50 μg) were incubated with 100 mM Hepes, pH 7.5, containing 10% (w/v) sucrose, 0.1% (w/v) CHAPS, 10 mM dithiotreitol and 20 μM substrate in a total reaction volume of 3 ml. Following incubation for 60 min at 25° C., fluorescence was monitored continuously using a spectrofluorimeter (excitation wavelength 380 nm, emission wavelength 460 nm). The amount of AMC released was determined by comparison with a standard curve generated with known amounts of AMC.

caspase 3 = system: caspase 3
Experimental: as §1

[1] = system: tyrosine phosphorylated proteins; experiment: Protein tyrosine phosphorylation Western blot, Jurkat cells
Experimental: Jurkat and CML cells (5×10^6) were harvested by centrifuigation at 1800 g for 10 min at 4° C. After being washed once with ice-cold phosphate-buffered saline, the cell pellet was suspended in 100 μl of ice-cold lysis buffer (50 mM Tris-HCl, pH 8.0, 150 mM NaCl, 0.1%.SDS, 1% Triton X-100, 1 mM sodium 1 mM phenylmethylsulfonyl, 10 ng/ml leupeptin and 10 ng/ml of aprotinin). The cells were left to sit on ice for 10 min and then centrifuged at 20,000 g for 20 min. The resulting supernatant was stored at −70° C. until measurement of tyrosine phosphorylation. Protein determination was measured by using the Bradford assay. Equal amounts of protein were resolved by SDS-polyacrylamide gel electrophoresis in 15% gels and transferred onto polyvinylidene difluoride (PVDF) membranes. Membranes were blocked with Tris-buffered saline with Tween 20 (10 mM Tris-HCl, pH 8.0, 150 mM NaCl, 0.05% Tween 20) containing 1% w/v BSA and probed with anti-phosphotyrosine antibody. Blots were washed, incubated with goat anti-mouse IgG peroxidase conjugate and developed by ECL according to the manufacturer's recommendations.

[2] = system: CEM (T lymphoblastoid) cells; experiment: Apoptosis in CEM cells (neo and Bcl-2 overexpressing)
p42-44 = experiment: Western blot of p42-44 activation in K562 cells
JNK1 and JNK2 = experiment: Western blot of JNK activation in Lama 84 and KYO.1 cells; conditions: Lama 84 and KYO.1, 45 minutes
[3] = system: PARP (poly ADP-ribose polymerase); experiment: Western blot of PARP cleavage in CML cells
Experimental: CML cells were seeded at 2×10^6 cells in 5 mls of growth medium, and treated with 10 μM PBOX-6 for 16 and 24 hr. Hela cells were seeded at 1×10^6 cells per 25 cm^2 flask. Following a 24 hour incubation, the cells were treated with PBOX-3 for a further 48 hours and the cells were scraped up. Cells were then centrifuged at 500 g for 5 min, the supernatant was removed and the pellet was resuspended in 200 μl of PARP sample buffer (62.5 mM Tris/HCl pH 6.8, 6 M urea, 10% (w/v) glycerol, 2% (w/v) SDS, 0.00125% bromophenol blue, and 5% (v/v) β-mercaptoethanol was added immediately before use). Samples were sonicated for 15 sec before aliquoting into 15 μl volumes. Samples were stored at −20° C. until use. 10-15 μl of thawed samples were resolved directly on a 10% polyacrylamide gel and transferred onto PVDF membrane at room temperature using wet transfer apparatus. After transfer, the membrane was blocked overnight in PBS containing 5% dry milk (Marvel). After blocking, the membrane was washed in PBST for 2×2 minutes before incubating for 1 hr with anti-PARP antibody (2 μg/ml in PBST containing 1% dry milk). Following incubation the membrane was washed for 20 minutes in PBST and incubated with goat anti mouse HRP conjugated secondary antibody (1:1000 dilution in PBST containing 1% dry milk). After washing in PBST for 30 minutes, ECL was used to visualise the proteins. […]

HL-60 cells = experiment: Agarose gel electrophoresis of DNA ladders, HL-60 cells; conditions: 24 hours

CN(C)C(=O)OC1=C(c2cccc3ccccc23)Oc2ccccc2-n2cccc21 [PBOX-6, 7-((Dimethylcarbamoyl)oxy)-6-(1-naphthyl)pyrrolo[2,1-d][1,5]benzoxazepine]
time at which caspase 3-like protease activity became evident (caspase 3-like proteases): 6 h | activation of caspase 3-like proteases (caspase 3-like proteases; DEVD-AMC substrate): dose-dependent activation of caspase 3-like proteases | caspase 3 activation (caspase 3; K562 and Lama 84, 16 hours): activated | caspase 3 activation (caspase 3; KYO.1 cells): not detected | protein tyrosine phosphorylation [1]: time and dose-dependent decrease in protein tyrosine phosphorylation | induction of apoptosis in CEM cells overexpressing Bcl-2 ([2]; Bcl-2 overexpressing): dose-dependent induction of apoptosis | induction of apoptosis in normal CEM cells ([2]; normal (neo) CEM): dose-dependent induction of apoptosis | activation of p42-44 (p42-44): not activated | activation of JNK1 and JNK2 (JNK1 and JNK2): found to be activated | PARP cleavage ([3]; K562 24 hours, Lama 84 16 hours): PARP cleavage occurs | PARP cleavage ([3]; KYO.1 cells, 24 hours): result in PARP cleavage | DNA fragmentation (ladder pattern) (HL-60 cells): resulted in DNA fragmentation

Source: US6806267B1, “Apoptosis-inducing compounds” (priority 1998, dated 2004)
